Measurements as given in patent publication US12097177B2, “Therapeutic method for cat with chronic kidney disease” (Toray Industries, Inc., priority 2021, dated 2024).
Where two headings read alike, the source gives them in different places.

Key:
cats with CKD [1] = experiment: Retrospective observation study: period before progression into IRIS stage 4, BPS therapy vs No BPS therapy (Kaplan-Meier); type: in vivo, cat; details: for 3-year stage progression-free rate: cats with CKD, twice daily
Procedure: To compare the periods before progression of feline CKD into stage 4 with BPS therapy and without BPS therapy, the following retrospective observation studies were performed. The studies were performed at Ichikawa General Hospital, Kariya Animal Hospital, Inc., that had adopted the electronic chart system for veterinary hospitals, Ahmics (trademark) (PetCommunications Co., Ltd.), and completely eliminated the use of paper charts before 2017. In this hospital, all-encompassing information concerning medical treatment such as test data, death records, and drug prescription records of all patient animals have been managed by the electronic chart system. Specifically, the data sets of 1,681 cats subjected to the serum creatinine test and the data sets of 1,399 cats subjected to the urinalysis from Apr. 1, 2017 to Dec. 10, 2020 were extracted. Among them, by excluding 951 cats without records, the data sets of 730 cats that were diagnosed to have CKD as a result of serum creatinine tests at least two times, urinalysis, and other clinical tests were extracted.
Based on the drug prescription records, cats were divided into two groups: a BPS therapy group consisting of 57 cats; and a BPS therapy-free group consisting of 77 cats, and the baseline characteristics and the periods before progression into stage 4 were compared and analyzed retrospectively. To the cats in the BPS therapy group, BPS drugs for veterinary use, RAPROS (trademark) (Toray Industries, Inc.), were administered while adjusting the amount of BPS to 14.1 to 52.4 μg/kg body weight/day and the median to 29.1 μg/kg body weight/day twice daily during or after morning and evening feeding occasions. […] Progression into stage 4 was examined by the method defined by the IRIS staging. Specifically, progression into stage 4 was determined based on serum creatinine or serum SDMA measured to be higher than 5.0 mg/dL or higher than 38 μg/dL, respectively, via two or more hospital visits. By designating progression into stage 4 as the outcome, the start date of treatment as the point of origin for the cats in the BPS therapy group, and the start date of observation as the point of origin for the cats in the No BPS therapy group, the periods (months) before the outcome was observed were recorded. In analysis, the 3-year stage progression-free rates (%) of the BPS therapy group and of the No BPS therapy group, the standard errors thereof, the 95% confidence intervals, and the comparison of the 3-year stage progression-free rates (%) between the groups were calculated. […] The average period (months) before progression into stage 4, the standard error thereof, the 95% confidence intervals, the medians and the standard errors thereof, the 95% confidence intervals, and the comparison of the average stage progression-free periods were calculated. Differences in the stage progression-free rates were assessed by the log rank test, the Cochran-Mantel-Haenszel test, by setting significant level at a two-tailed P-value of <0.05.
Based on the drug prescription records, cats were divided into two groups: a BPS therapy group consisting of 37 cats; and a BPS therapy-free group consisting of 332 cats, and the baseline characteristics and the periods before progression into stage 4 were compared and analyzed retrospectively. To the cats in the BPS therapy group, BPS drugs for veterinary use, RAPROS (trademark) (Toray Industries, Inc.), were administered while adjusting the amount of BPS to 18.5 to 42.3 μg/kg body weight/day and the median to 26.5 μg/kg body weight/day twice daily during or after morning and evening feeding occasions. Progression into stage 4 was examined by the method defined by the IRIS staging. Specifically, progression into stage 4 was determined based on serum creatinine or serum SDMA measured to be higher than 5.0 mg/dL or higher than 38 μg/dL, respectively, via two or more hospital visits. […]

cats with CKD [2] = experiment: Retrospective observation study: survival period / overall survival rate (all-cause death), BPS therapy vs No BPS therapy; type: in vivo, cat; details: for average survival period / median survival period: Kaplan-Meier
Procedure: Based on the drug prescription records, cats were divided into two groups: a BPS therapy group consisting of 17 cats; and a BPS therapy-free group consisting of 67 cats, and baseline characteristics and the survival periods were compared and analyzed retrospectively. To the cats in the BPS therapy group, BPS drugs for veterinary use, RAPROS (trademark) (Toray Industries, Inc.), were administered while adjusting the amount of BPS to 20.0 to 49.1 μg/kg body weight/day and the median to 31.4 μg/kg body weight/day twice daily during or after morning and evening feeding occasions. By designating all-cause death as the outcome, the start date of treatment as the point of origin for the cats in the BPS therapy group, and the start date of observation as the point of origin for the cats in the No BPS therapy group based on the death records, the periods (months) before the outcome was observed were recorded. In analysis, the 2-year overall survival rates (%) of the BPS therapy group and of the No BPS therapy group, the standard errors thereof, the 95% confidence intervals, and the comparison of the 2-year overall survival rates (%) between the groups were calculated. […] Differences in the overall survival rates were assessed by the log rank test, the Cochran-Mantel-Haenszel test, by setting significant level at a two-tailed P-value of <0.05. […]
From among the cats with CKD, the data sets of […] having body weight of less than 3.5 kg were extracted, and the cats were divided into two groups: a BPS therapy group consisting of 19 cats; and a BPS therapy-free group consisting of 40 cats. In the same manner as described above, the 3-year overall survival rates (%) and the average survival periods were compared between the groups.

[3] = test system: cats with chronic renal failure; details: cited from earlier work; for kidney function: 4 cats
cats with CKD [4] = details: 55 μg twice daily for at least 5 months, cited from earlier work
[5] = stage 2 (serum creatinine 1.6 to 2.8 mg/dL)
[6] = stage 3 (serum creatinine 2.9 to 5.0 mg/dL)
[7] = stage 3 (serum creatinine 2.9 to 5.0 mg/dL), Kaplan-Meier
[8] = cats with CKD having body weight of less than 3.5 kg
[9] = stage 3 and body weight of less than 4.2 kg
[10] = first study, 26 cats (BPS group 11)
[11] = later study, 29 cats (BPS group 15)

What does the source list for CC#CCC(C)[C@H](O)/C=C/[C@@H]1[C@H]2c3cccc(CCCC(=O)[O-])c3O[C@H]2C[C@H]1O.[Na+] (stereo partly shown) [BPS, Beraprost sodium]?
3-year stage progression-free rate (cats with CKD [1]; serum creatinine 1.6 to 2.8 mg/dL (stage 2), BPS 18.5 to 42.3 μg/kg body weight/day): 74.7%; 3-year stage progression-free rate (cats with CKD [1]; serum creatinine 2.9 to 5.0 mg/dL (stage 3), BPS 14.1 to 52.4 μg/kg body weight/day): 32.7%; 3-year stage progression-free rate of BPS therapy group relative to No BPS therapy group (cats with CKD [1]; [5]): 0.83 times; average stage progression-free period of BPS therapy group relative to No BPS therapy group (cats with CKD [1]; [5]): 0.93 times; effect on progression into stage 4 (cats with CKD [1]; stage 2 (serum creatinine 1.6 to 2.8 mg/dL) before initiation of administration): no effects of BPS administration to inhibit progression into stage 4 were observed; average period before progression into stage 4 (cats with CKD [1]; stage 2 (serum creatinine 1.6 to 2.8 mg/dL), Kaplan-Meier): 38.0 months; 3-year stage progression-free rate of BPS therapy group relative to No BPS therapy group (cats with CKD [1]; [6]): 1.25 times; average stage progression-free period of BPS therapy group relative to No BPS therapy group (cats with CKD [1]; [6]): 1.49 times; effect on progression into stage 4 (cats with CKD [1]; stage 3 (serum creatinine 2.9 to 5.0 mg/dL) before initiation of administration): effects of BPS administration to inhibit progression into stage 4 were observed; average period before progression into stage 4 (cats with CKD [1]; [7]): 26.5 months; median period before progression into stage 4 (cats with CKD [1]; [7]): 31.6 months; 3-year overall survival rate of BPS therapy group relative to No BPS therapy group (cats with CKD [2]; [8]): 2.90 times; average survival period of BPS therapy group relative to No BPS therapy group (cats with CKD [2]; [8]): 1.66 times; 3-year overall survival rate (cats with CKD [2]; cats with CKD, serum creatinine 1.6 to 2.8 mg/dL (stage 2)): 52.2%; 3-year overall survival rate (cats with CKD [2]; cats with CKD, serum creatinine 2.9 to 5.0 mg/dL (stage 3)): 33.5%; 2-year overall survival rate (cats with CKD [2]; cats with CKD, serum creatinine higher than 5.0 mg/dL (stage 4), BPS 20.0 to 49.1 μg/kg body weight/day, twice daily): 25.9%; 3-year overall survival rate of BPS therapy group relative to No BPS therapy group (cats with CKD [2]; stage 2): 0.72 times; average survival period of BPS therapy group relative to No BPS therapy group (cats with CKD [2]; stage 2): 0.90 times; average survival period (cats with CKD [2]; stage 2): 31.5 months; effect on overall survival rate or observed survival rate (cats with CKD [2]; stage 2 before initiation of administration): no effects of BPS administration to improve the overall survival rate or the observed survival rate were observed; average survival period of BPS therapy group relative to No BPS therapy group (cats with CKD [2]; stage 3): 1.54 times; 3-year overall survival rate of BPS therapy group relative to No BPS therapy group (cats with CKD [2]; stage 3 (Example 4)): 1.85 times; 3-year overall survival rate (cats with CKD [2]; stage 3 (serum creatinine 2.9 to 5.0 mg/dL) and body weight of less than 4.2 kg): 28.0%; average survival period (cats with CKD [2]; stage 3): 25.3 months; median survival period (cats with CKD [2]; stage 3): 23.4 months; average survival period of BPS therapy group relative to No BPS therapy group (cats with CKD [2]; [9]): 1.54 times; 3-year overall survival rate of BPS therapy group relative to No BPS therapy group (cats with CKD [2]; stage 3 and body weight of less than 4.2 kg (Example 6)): 2.77 times; effect on overall survival rate or observed survival rate (cats with CKD [2]; stage 3 and body weight of less than 4.2 kg before initiation of administration): effects of BPS administration to improve the overall survival rate or the observed survival rate were observed; average survival period (cats with CKD [2]; [9]): 22.4 months; median survival period (cats with CKD [2]; [9]): 19.8 months; effect on overall survival rate or observed survival rate (cats with CKD [2]; stage 3 before initiation of administration): effects of BPS administration to improve the overall survival rate or the observed survival rate were observed; 2-year overall survival rate of BPS therapy group relative to No BPS therapy group (cats with CKD [2]; stage 4): 4.80 times; average survival period of BPS therapy group relative to No BPS therapy group (cats with CKD [2]; stage 4): 2.43 times; average survival period (cats with CKD [2]; stage 4): 14.1 months; median survival period (cats with CKD [2]; stage 4): 10.2 months; effect on overall survival rate or observed survival rate (cats with CKD [2]; stage 4 before initiation of administration): effects of BPS administration to improve the overall survival rate or the observed survival rate were observed; kidney function (serum creatinine, BUN, other indicators) and clinical symptoms ([3]; 150 μg twice daily for 6 months): an improvement in kidney function; kidney function ([3]; serum creatinine 1.6 to 2.4 mg/dL (mild), 150 μg twice daily for 6 months): improved kidney function was observed in all of the 4 subject cats; kidney function ([3]; serum creatinine 2.4 to 4.0 mg/dL (moderate), 150 μg twice daily for 6 months): improved kidney function was observed in the 2 subject cats, and retained kidney function was observed in other 2 cats; kidney function ([3]; serum creatinine higher than 4.0 mg/dL (severe), 150 μg twice daily for 6 months): improved kidney function was observed in a cat, and temporary improvement, followed by impairment, was observed in other 3 cats; uremia ([3]; cat with uremia caused by chronic renal failure (WO '668)): improved uremia; recovery from chronic renal failure ([3]; mild chronic renal failure, serum creatinine 1.4 to 2.0 mg/dL, 150 μg twice daily for 6 months): recovery from chronic renal failure was observed in 2 cats; effect of improving the survival rate vs renin-angiotensin system inhibitor group (cats with CKD [4]; [10]): higher than those in the renin-angiotensin system inhibitor group; effect of lowering the risk of 10% body weight loss vs renin-angiotensin system inhibitor group (cats with CKD [4]; [10]): higher than those in the renin-angiotensin system inhibitor group; effect of improving the survival rate vs renin-angiotensin system inhibitor group (cats with CKD [4]; [11]): no effects of improving the survival rate were observed; effect of lowering the risk of 10% body weight loss vs renin-angiotensin system inhibitor group (cats with CKD [4]; [11]): effects of lowering the risk of 10% body weight loss were observed
